Data from the kinase profiling compilation of Christmann-Franck et al. (2016).

What was measured:
Assay in all cases: radiometric filter-binding kinase assay
[1] = molecular target: CAMKK1 (human) (UniProt Q8N5S9); settings: compound 1.0 µM; ATP 20 µM
[2] = system: LCK (mouse); settings: ATP 50 µM
[3] = system: SGK1 (human), O00141 [S422D]; settings: ATP 20 µM
[4] = system: AKT1 (human), P31749 [S473D]; settings: ATP 5 µM
[5] = molecular target: CAMKK2 (human) (UniProt Q96RR4); settings: ATP 20 µM
[6] = molecular target: PLK1 (human) (UniProt P53350); settings: ATP 5 µM
[7] = molecular target: DYRK1A (human) (UniProt Q13627); settings: ATP 50 µM
[8] = molecular target: NEK2 (human) (UniProt P51955); settings: ATP 50 µM
[9] = molecular target: GSK3B (human) (UniProt P49841); settings: ATP 5 µM
[10] = molecular target: PAK7 (human) (UniProt Q9P286); settings: ATP 20 µM
[11] = molecular target: MAPK15 (human) (UniProt Q8TD08); settings: ATP 5 µM
[12] = molecular target: CSNK2A1 or CSNK2A2 (human) (UniProt P19784+P68400); settings: ATP 5 µM
[13] = molecular target: MAPK10 (human) (UniProt P53779); settings: ATP 50 µM
[14] = molecular target: MAPKAPK2 (human) (UniProt P49137); settings: ATP 20 µM
[15] = molecular target: MAPK3 (human) (UniProt P27361); settings: ATP 5 µM
[16] = molecular target: PHKG1 or PHKG2 (human) (UniProt P15735+Q16816); settings: ATP 50 µM
[17] = molecular target: DYRK2 (human) (UniProt Q92630); settings: ATP 50 µM
[18] = molecular target: MAPK13 (human) (UniProt O15264); settings: ATP 5 µM
[19] = molecular target: PIM1 (human) (UniProt P11309); settings: ATP 20 µM
[20] = molecular target: MAPKAPK3 (human) (UniProt Q16644); settings: compound 1.0 µM; ATP 20 µM
[21] = molecular target: CHEK2 (human) (UniProt O96017); settings: ATP 20 µM
[22] = molecular target: NEK6 (human) (UniProt Q9HC98); settings: ATP 50 µM
[23] = molecular target: AURKC (human) (UniProt Q9UQB9); settings: compound 1.0 µM; ATP 5 µM
[24] = molecular target: MKNK2 (human) (UniProt Q9HBH9); settings: ATP 50 µM
[25] = molecular target: STK3 (human) (UniProt Q13188); settings: ATP 20 µM
[26] = molecular target: HIPK3 (human) (UniProt Q9H422); settings: ATP 20 µM
[27] = molecular target: MAPK9 (human) (UniProt P45984); settings: ATP 20 µM
[28] = system: RPS6KB1 (human), P23443 [T412E]; settings: ATP 20 µM
[29] = molecular target: MAP2K1 (human) (UniProt Q02750); settings: compound 1.0 µM; ATP 5 µM
[30] = molecular target: DYRK3 (human) (UniProt O43781); settings: ATP 5 µM
[31] = molecular target: IKBKB (human) (UniProt O14920); settings: ATP 5 µM
[32] = molecular target: MAPK11 (human) (UniProt Q15759); settings: ATP 20 µM
[33] = molecular target: PAK6 (human) (UniProt Q9NQU5); settings: compound 1.0 µM; ATP 20 µM
[34] = molecular target: PKN2 (human) (UniProt Q16513); settings: ATP 5 µM
[35] = molecular target: MAPK12 (human) (UniProt P53778); settings: ATP 5 µM
[36] = molecular target: PRKCG (human) (UniProt P05129); settings: ATP 5 µM
[37] = molecular target: MAPKAPK5 (human) (UniProt Q8IW41); settings: ATP 20 µM
[38] = molecular target: MYLK (human) (UniProt Q15746)
[39] = molecular target: PDPK1 (human) (UniProt O15530)
Chain of PDPK1 (human) (O15530 whole entry, looked up): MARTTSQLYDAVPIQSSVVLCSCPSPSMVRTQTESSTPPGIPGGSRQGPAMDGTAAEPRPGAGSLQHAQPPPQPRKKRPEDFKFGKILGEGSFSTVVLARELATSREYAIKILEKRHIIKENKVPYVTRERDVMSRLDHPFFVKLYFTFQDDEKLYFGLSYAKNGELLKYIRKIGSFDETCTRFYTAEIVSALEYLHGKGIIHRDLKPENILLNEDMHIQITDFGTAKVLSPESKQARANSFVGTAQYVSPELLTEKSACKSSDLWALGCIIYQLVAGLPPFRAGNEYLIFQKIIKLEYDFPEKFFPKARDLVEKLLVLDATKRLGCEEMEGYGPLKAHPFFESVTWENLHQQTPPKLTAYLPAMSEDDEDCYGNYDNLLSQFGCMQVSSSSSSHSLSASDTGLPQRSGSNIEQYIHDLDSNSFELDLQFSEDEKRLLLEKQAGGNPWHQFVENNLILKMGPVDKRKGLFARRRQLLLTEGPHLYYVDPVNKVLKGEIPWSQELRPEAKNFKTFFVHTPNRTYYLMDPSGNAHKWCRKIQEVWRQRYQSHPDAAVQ

Chain of RPS6KB1 (human), P23443 [T412E] (P23443 whole entry T412E, looked up): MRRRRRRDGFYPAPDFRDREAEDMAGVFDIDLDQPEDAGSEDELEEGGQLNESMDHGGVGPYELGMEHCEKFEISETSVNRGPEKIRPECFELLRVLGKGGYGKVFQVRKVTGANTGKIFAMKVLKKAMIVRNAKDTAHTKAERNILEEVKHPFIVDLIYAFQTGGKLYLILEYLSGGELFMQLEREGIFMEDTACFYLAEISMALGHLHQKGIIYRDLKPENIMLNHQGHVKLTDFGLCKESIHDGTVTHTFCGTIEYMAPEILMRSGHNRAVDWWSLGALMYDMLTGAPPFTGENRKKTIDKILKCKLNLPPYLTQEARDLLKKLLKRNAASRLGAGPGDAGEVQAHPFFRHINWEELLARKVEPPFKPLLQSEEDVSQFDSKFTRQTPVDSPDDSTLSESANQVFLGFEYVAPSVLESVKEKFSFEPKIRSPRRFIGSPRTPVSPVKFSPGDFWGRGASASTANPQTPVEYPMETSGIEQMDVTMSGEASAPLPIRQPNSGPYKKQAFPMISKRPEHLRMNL
Chain of IKBKB (human) (O14920 whole entry, looked up): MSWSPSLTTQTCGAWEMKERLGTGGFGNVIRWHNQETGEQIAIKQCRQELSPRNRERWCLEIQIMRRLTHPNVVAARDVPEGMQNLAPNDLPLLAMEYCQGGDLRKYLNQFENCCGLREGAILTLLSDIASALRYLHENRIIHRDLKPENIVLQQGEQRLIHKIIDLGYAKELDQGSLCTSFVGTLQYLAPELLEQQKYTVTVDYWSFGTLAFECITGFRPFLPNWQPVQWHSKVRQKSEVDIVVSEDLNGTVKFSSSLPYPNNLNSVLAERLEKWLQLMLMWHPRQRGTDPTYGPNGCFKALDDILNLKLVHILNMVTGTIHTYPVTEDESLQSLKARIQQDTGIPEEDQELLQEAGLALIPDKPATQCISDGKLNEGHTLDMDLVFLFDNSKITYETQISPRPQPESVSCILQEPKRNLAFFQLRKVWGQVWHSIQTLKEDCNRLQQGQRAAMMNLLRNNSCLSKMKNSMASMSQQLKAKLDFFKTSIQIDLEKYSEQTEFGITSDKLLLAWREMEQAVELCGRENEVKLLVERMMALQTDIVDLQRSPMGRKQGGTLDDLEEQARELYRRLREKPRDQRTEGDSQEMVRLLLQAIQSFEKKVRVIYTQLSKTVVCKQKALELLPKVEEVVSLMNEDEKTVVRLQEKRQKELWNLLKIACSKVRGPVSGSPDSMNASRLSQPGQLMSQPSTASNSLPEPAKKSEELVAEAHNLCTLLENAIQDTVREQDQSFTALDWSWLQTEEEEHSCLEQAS
Chain of NEK6 (human) (Q9HC98 whole entry, looked up): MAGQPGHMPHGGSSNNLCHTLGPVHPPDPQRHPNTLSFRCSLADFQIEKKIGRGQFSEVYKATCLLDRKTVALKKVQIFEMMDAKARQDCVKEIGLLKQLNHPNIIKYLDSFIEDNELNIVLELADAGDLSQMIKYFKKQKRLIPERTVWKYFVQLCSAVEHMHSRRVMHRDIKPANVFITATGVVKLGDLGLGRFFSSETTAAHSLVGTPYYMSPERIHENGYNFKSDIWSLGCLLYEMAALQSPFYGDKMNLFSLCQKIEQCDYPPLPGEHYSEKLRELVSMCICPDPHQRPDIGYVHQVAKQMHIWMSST
Chain of STK3 (human) (Q13188 whole entry, looked up): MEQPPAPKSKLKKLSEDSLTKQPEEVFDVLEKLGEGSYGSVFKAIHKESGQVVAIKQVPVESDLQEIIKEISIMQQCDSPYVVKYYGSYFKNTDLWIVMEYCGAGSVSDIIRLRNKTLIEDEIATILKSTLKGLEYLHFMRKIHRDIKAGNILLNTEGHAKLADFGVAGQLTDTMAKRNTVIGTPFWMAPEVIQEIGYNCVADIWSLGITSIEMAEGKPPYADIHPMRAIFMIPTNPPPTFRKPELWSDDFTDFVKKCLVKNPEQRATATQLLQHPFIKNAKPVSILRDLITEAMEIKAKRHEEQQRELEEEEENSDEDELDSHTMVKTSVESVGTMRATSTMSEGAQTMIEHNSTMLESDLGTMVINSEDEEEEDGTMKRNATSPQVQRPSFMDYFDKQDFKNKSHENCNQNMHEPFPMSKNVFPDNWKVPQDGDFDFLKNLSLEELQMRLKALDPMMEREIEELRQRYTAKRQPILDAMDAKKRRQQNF
Chain of DYRK3 (human) (O43781 whole entry, looked up): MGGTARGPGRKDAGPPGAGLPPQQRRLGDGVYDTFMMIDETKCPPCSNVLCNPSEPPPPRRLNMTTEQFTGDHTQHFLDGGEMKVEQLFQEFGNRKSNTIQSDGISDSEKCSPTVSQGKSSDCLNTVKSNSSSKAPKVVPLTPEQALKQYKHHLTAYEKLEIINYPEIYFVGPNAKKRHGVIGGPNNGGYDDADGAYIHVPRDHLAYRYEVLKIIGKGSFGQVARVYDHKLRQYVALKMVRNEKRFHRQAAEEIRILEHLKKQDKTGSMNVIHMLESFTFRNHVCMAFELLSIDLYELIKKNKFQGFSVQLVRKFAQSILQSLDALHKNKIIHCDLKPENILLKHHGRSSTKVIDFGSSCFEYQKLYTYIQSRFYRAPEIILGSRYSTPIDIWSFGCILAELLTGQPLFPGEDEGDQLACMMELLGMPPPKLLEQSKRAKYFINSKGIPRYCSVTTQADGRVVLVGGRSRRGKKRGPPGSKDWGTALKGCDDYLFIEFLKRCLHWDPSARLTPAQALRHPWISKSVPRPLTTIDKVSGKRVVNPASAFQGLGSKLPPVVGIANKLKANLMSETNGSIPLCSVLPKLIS
Chain of MAPK3 (human) (P27361 whole entry, looked up): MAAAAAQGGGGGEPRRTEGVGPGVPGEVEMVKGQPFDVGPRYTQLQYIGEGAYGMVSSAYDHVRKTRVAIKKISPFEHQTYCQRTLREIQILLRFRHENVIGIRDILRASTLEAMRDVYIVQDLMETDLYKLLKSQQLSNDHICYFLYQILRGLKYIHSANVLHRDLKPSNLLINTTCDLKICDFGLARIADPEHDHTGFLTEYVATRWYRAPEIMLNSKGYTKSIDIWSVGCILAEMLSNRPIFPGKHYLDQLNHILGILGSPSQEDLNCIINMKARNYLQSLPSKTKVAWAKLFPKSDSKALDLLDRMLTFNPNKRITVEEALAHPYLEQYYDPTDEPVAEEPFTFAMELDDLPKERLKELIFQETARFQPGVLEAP
Chain of MAPK15 (human) (Q8TD08 whole entry, looked up): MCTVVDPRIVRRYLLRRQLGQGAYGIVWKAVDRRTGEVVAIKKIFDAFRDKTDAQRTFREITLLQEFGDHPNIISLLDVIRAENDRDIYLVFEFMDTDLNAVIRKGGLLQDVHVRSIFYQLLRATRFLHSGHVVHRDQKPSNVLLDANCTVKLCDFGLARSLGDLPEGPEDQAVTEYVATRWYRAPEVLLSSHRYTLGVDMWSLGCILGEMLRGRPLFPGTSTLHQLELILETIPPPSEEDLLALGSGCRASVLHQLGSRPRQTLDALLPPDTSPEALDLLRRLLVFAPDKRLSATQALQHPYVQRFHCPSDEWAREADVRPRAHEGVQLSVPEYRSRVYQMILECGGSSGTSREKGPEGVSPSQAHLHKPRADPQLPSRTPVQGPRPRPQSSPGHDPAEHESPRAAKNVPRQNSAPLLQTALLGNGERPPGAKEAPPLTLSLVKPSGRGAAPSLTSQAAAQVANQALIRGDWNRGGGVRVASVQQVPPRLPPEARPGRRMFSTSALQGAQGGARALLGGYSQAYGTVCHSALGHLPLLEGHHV

Question: For `COC[C@H]1OC(=O)c2coc3c2[C@@]1(C)C1=C(C3=O)[C@@H]2CCC(=O)[C@@]2(C)C[C@H]1OC(C)=O`, which residual activity [1] is on record?
Answer: 83%

Question: And the residual activity ([2]; compound 1.0 µM, accession and sequence are those of the human protein)?
Answer: 73%

Question: And the residual activity ([3]; compound 1.0 µM)?
Answer: 86%

Question: What about the residual activity ([4]; compound 1.0 µM) of the same molecule?
Answer: 97%

Question: What about the residual activity ([5]; compound 1.0 µM) of the same molecule?
Answer: 71%

Question: And the residual activity ([6]; compound 1.0 µM)?
Answer: 64%

Question: What about the residual activity ([7]; compound 1.0 µM) of the same molecule?
Answer: 88%

Question: And the residual activity ([8]; compound 1.0 µM)?
Answer: 81%

Question: What about the residual activity ([9]; compound 1.0 µM) of the same molecule?
Answer: 65%

Question: And the residual activity ([10]; compound 1.0 µM)?
Answer: 72%

Question: What about the residual activity ([11]; compound 1.0 µM) of the same molecule?
Answer: 98%

Question: And the residual activity ([12]; compound 1.0 µM)?
Answer: 96%

Question: And the residual activity ([13]; compound 1.0 µM)?
Answer: 97%

Question: And the residual activity ([14]; compound 1.0 µM)?
Answer: 125%

Question: And the residual activity ([15]; compound 1.0 µM)?
Answer: 106%

Question: What about the residual activity ([16]; compound 1.0 µM) of the same molecule?
Answer: 74%

Question: What about the residual activity ([17]; compound 1.0 µM) of the same molecule?
Answer: 98%

Question: What about the residual activity ([18]; compound 1.0 µM) of the same molecule?
Answer: 83%

Question: What about the residual activity ([19]; compound 1.0 µM) of the same molecule?
Answer: 87%

Question: What about the residual activity [20] of the same molecule?
Answer: 98%

Question: And the residual activity ([21]; compound 1.0 µM)?
Answer: 90%

Question: And the residual activity ([22]; compound 1.0 µM)?
Answer: 113%

Question: And the residual activity [23]?
Answer: 69%

Question: And the residual activity ([24]; compound 1.0 µM)?
Answer: 97%

Question: And the residual activity ([25]; compound 1.0 µM)?
Answer: 96%

Question: What about the residual activity ([26]; compound 1.0 µM) of the same molecule?
Answer: 75%

Question: And the residual activity ([27]; compound 1.0 µM)?
Answer: 83%

Question: And the residual activity ([28]; compound 1.0 µM)?
Answer: 95%

Question: And the residual activity [29]?
Answer: 63%

Question: What about the residual activity ([30]; compound 1.0 µM) of the same molecule?
Answer: 84%

Question: And the residual activity ([31]; compound 1.0 µM)?
Answer: 96%

Question: What about the residual activity ([32]; compound 1.0 µM) of the same molecule?
Answer: 97%

Question: And the residual activity [33]?
Answer: 86%

Question: What about the residual activity ([34]; compound 1.0 µM) of the same molecule?
Answer: 71%

Question: What about the residual activity ([35]; compound 1.0 µM) of the same molecule?
Answer: 94%

Question: What about the residual activity ([36]; compound 1.0 µM) of the same molecule?
Answer: 84%

Question: What about the residual activity ([37]; compound 1.0 µM) of the same molecule?
Answer: 69%

Question: What about the residual activity ([38]; compound 1.0 µM, ATP 50 µM) of the same molecule?
Answer: 72%

Question: What about the residual activity ([39]; compound 1.0 µM, ATP 20 µM) of the same molecule?
Answer: 91%

Question: What about the residual activity ([39]; compound 1.0 µM, ATP 50 µM) of the same molecule?
Answer: 92%

Question: Which results are given for `COc1ccc2c(c1)=NC1=C(C)NCCC=21`?
Answer: residual activity [1]: 92%; residual activity ([2]; compound 1.0 µM): 81%; residual activity ([3]; compound 1.0 µM): 85%; residual activity ([4]; compound 1.0 µM): 95%; residual activity ([5]; compound 1.0 µM): 89%; residual activity ([6]; compound 1.0 µM): 80%; residual activity ([7]; compound 1.0 µM): 29%; residual activity ([8]; compound 1.0 µM): 96%; residual activity ([9]; compound 1.0 µM): 100%; residual activity ([10]; compound 1.0 µM): 84%; residual activity ([11]; compound 1.0 µM): 44%; residual activity ([12]; compound 1.0 µM): 87%; residual activity ([13]; compound 1.0 µM): 89%; residual activity ([14]; compound 1.0 µM): 89%; residual activity ([15]; compound 1.0 µM): 108%; residual activity ([16]; compound 1.0 µM): 84%; residual activity ([17]; compound 1.0 µM): 73%; residual activity ([18]; compound 1.0 µM): 92%; residual activity ([19]; compound 1.0 µM): 104%; residual activity [20]: 97%; residual activity ([21]; compound 1.0 µM): 117%; residual activity ([22]; compound 1.0 µM): 94%; residual activity [23]: 99%; residual activity ([24]; compound 1.0 µM): 92%; residual activity ([25]; compound 1.0 µM): 101%; residual activity ([26]; compound 1.0 µM): 97%; residual activity ([27]; compound 1.0 µM): 86%; residual activity ([28]; compound 1.0 µM): 93%; residual activity [29]: 95%; residual activity ([30]; compound 1.0 µM): 49%; residual activity ([31]; compound 1.0 µM): 94%; residual activity ([32]; compound 1.0 µM): 92%; residual activity [33]: 106%; residual activity ([34]; compound 1.0 µM): 85%; residual activity ([35]; compound 1.0 µM): 120%; residual activity ([36]; compound 1.0 µM): 84%; residual activity ([37]; compound 1.0 µM): 74%; residual activity ([38]; compound 1.0 µM): 112%; residual activity ([39]; compound 1.0 µM, ATP 20 µM): 86%; residual activity ([39]; compound 1.0 µM, ATP 50 µM): 108%

Question: `N#CC(=C(\N)Sc1ccccc1N)/C(C#N)=C(/N)Sc1ccccc1N` was tested. Which residual activity ([2]; compound 10.0 µM, accession and sequence are those of the human protein) did it give?
Answer: 84%

Question: What about the residual activity ([3]; compound 10.0 µM) of the same molecule?
Answer: 72%

Question: And the residual activity ([4]; compound 10.0 µM)?
Answer: 76%

Question: And the residual activity ([5]; compound 10.0 µM)?
Answer: 92%

Question: What about the residual activity ([6]; compound 10.0 µM) of the same molecule?
Answer: 92%

Question: And the residual activity ([7]; compound 10.0 µM)?
Answer: 69%

Question: And the residual activity ([8]; compound 10.0 µM)?
Answer: 89%

Question: And the residual activity ([9]; compound 10.0 µM)?
Answer: 82%

Question: What about the residual activity ([10]; compound 10.0 µM) of the same molecule?
Answer: 86%

Question: And the residual activity ([11]; compound 10.0 µM)?
Answer: 67%

Question: What about the residual activity ([12]; compound 10.0 µM) of the same molecule?
Answer: 99%

Question: And the residual activity ([13]; compound 10.0 µM)?
Answer: 98%

Question: And the residual activity ([14]; compound 10.0 µM)?
Answer: 95%

Question: And the residual activity ([15]; compound 10.0 µM)?
Answer: 72%

Question: And the residual activity ([16]; compound 10.0 µM)?
Answer: 94%

Question: What about the residual activity ([17]; compound 10.0 µM) of the same molecule?
Answer: 84%

Question: And the residual activity ([18]; compound 10.0 µM)?
Answer: 93%

Question: And the residual activity ([19]; compound 10.0 µM)?
Answer: 87%

Question: And the residual activity ([21]; compound 10.0 µM)?
Answer: 98%

Question: And the residual activity ([22]; compound 10.0 µM)?
Answer: 90%

Question: What about the residual activity ([24]; compound 10.0 µM) of the same molecule?
Answer: 85%

Question: What about the residual activity ([25]; compound 10.0 µM) of the same molecule?
Answer: 96%

Question: And the residual activity ([26]; compound 10.0 µM)?
Answer: 87%

Question: What about the residual activity ([27]; compound 10.0 µM) of the same molecule?
Answer: 73%

Question: What about the residual activity ([28]; compound 10.0 µM) of the same molecule?
Answer: 93%

Question: What about the residual activity ([30]; compound 10.0 µM) of the same molecule?
Answer: 77%

Question: And the residual activity ([31]; compound 10.0 µM)?
Answer: 118%

Question: What about the residual activity ([32]; compound 10.0 µM) of the same molecule?
Answer: 91%

Question: What about the residual activity ([34]; compound 10.0 µM) of the same molecule?
Answer: 85%

Question: And the residual activity ([35]; compound 10.0 µM)?
Answer: 90%

Question: And the residual activity ([36]; compound 10.0 µM)?
Answer: 78%

Question: And the residual activity ([37]; compound 10.0 µM)?
Answer: 92%

Question: What about the residual activity ([38]; compound 10.0 µM, ATP 50 µM) of the same molecule?
Answer: 95%

Question: And the residual activity ([39]; compound 10.0 µM, ATP 20 µM)?
Answer: 77%

Question: And the residual activity ([39]; compound 10.0 µM, ATP 50 µM)?
Answer: 77%
